Data as given in publication PMC8000919, “Validation of an LC-MS/MS Method to Quantify the New TRPC6 Inhibitor SH045 (Larixyl N-methylcarbamate) and Its Application in an Exploratory Pharmacokinetic Study in Mice” (Pharmaceuticals, 2021).
Read-outs that look alike come from different tables or passages of the source.

Assays:
TRPC6 [1] = test system: TRPC6; parameters: method as in PMID 29522264; conditions: patch-clamp recordings; read-out: IC50 to block inward currents; cited from earlier work
[2] = test system: ischemic lungs explanted from mice; parameters: method as in PMID 29522264; conditions: ex vivo model of LIRE; cited from earlier work
[3] = Stability in stock and working solutions; assay type: physicochemical; conditions: nominal 1000 ng/mL
Procedure: Analytic stock solutions of SH045 and of IS (1 mg/mL each) were prepared in ACN and stored at −20 °C. Working solutions of SH045 and of IS (50 µg/mL) were freshly prepared by dilution with water/ACN 1:1 (v/v). Calibration and QC samples were prepared by addition of 2 μL SH045 working solutions and 2 μL IS solution to 18 μL of blank plasma, further processed identically to the preparation of plasma (see below). Freshly prepared calibration samples for SH045 in plasma comprised eight concentration levels analyzed in duplicates (2, 5, 10, 100, 200, 800, 1200 and 1600 ng/mL).
The stability of SH045 and IS in stock solutions stored at −20 °C for 28 days and in working solutions stored at 4 °C for 12 h was determined comparing the analyzed with the nominal concentration and accepted when accuracy was within 15%.

TRPC6 [4] = test system: TRPC6; parameters: method as in PMID 29522264; conditions: stably TRPC6-transfected HEK293 cells; read-out: IC50 to inhibit Ca2+ influx; cited from earlier work
[5] = Plasma protein binding (PPB) by ultrafiltration; assay type: in vitro ADME; conditions: mouse plasma
Procedure: PPB of SH045 in mice plasma was determined at two concentrations, 100 and 800 ng/mL, using ultrafiltration. For that, 2 µL of working solutions of SH045 in DMSO (final concentration […]) were mixed with 298 µL blank plasma and incubated at 37 °C for 30 min. To determine the total concentration of SH045, 60 µL sample were taken out. The remaining 240 µL of spiked plasma were transferred to a centrifugal filter (Centrifugal Filter Units, 30 kDa cut-off, Millipore, County Cork, Ireland) and centrifuged at room temperature for 10 min at 1000× g. The filtrates were analyzed for the unbound SH045. The PPB was calculated as PPB (%) = (Ct − Cf)/Ct × 100, with Ct as total SH045 concentration in spiked plasma and Cf as unbound SH045 concentration in the filtrate.

[6] = test system: TRPC3/6 channels of rat PASMC; parameters: method as in PMID 29522264; conditions: 1-oleyl-2-acetyl-sn-glycerol (OAG)-induced; cited from earlier work
[7] = Stability in plasma QC samples under storage conditions; assay type: physicochemical, mice; conditions: for Stability in autosampler, Accuracy / Stability in autosampler, Mean ± SEM: extracted plasma QC samples, 6 °C; for Stability in autosampler, Accuracy / Stability in autosampler, Mean ± SEM / Freeze and thaw stability, Accuracy / Freeze and thaw stability, Mean ± SEM: 12 h; for Short-term stability, Accuracy / Short-term stability, Mean ± SEM / Freeze and thaw stability, Accuracy / Freeze and thaw stability, Mean ± SEM / Long-term stability, Accuracy / Long-term stability, Mean ± SEM: plasma QC samples; for Short-term stability, Accuracy / Short-term stability, Mean ± SEM: 25 °C, 4 h; for Freeze and thaw stability, Accuracy / Freeze and thaw stability, Mean ± SEM / Long-term stability, Accuracy / Long-term stability, Mean ± SEM: −20 °C; for Freeze and thaw stability, Accuracy / Freeze and thaw stability, Mean ± SEM: 3 cycles; for Long-term stability, Accuracy / Long-term stability, Mean ± SEM: 30 days
Procedure: […] The accuracy of the mean concentration at each of the three QC levels was accepted within ±15% of nominal concentration. All stability experiments were carried out in three replicates.

TRPC3 = test system: TRPC3; parameters: method as in PMID 29522264; conditions: TRPC6 over TRPC3; cited from earlier work
[8] = Exploratory plasma pharmacokinetics in mice after single i.p. administration, non-compartmental analysis; assay type: in vivo
Procedure: The practicability of the validated method for SH045 quantification was verified in a first exploratory pharmacokinetic study in mice. Male C57BL/6 mice (25–30 g body weight, Charles River, Sulzfeld, Germany) were housed in groups under standard conditions, allowed access to lab chow and water ad libitum. Animal experiments were performed according to the national regulations of animal welfare and were ethically approved by the local committee on animal welfare and the local authorities. Animal experiments were performed under strict consideration of the 3R principles (replace, reduce, refine), fully complying with the ARRIVE guidelines.
Solutions of SH045 for i.p. administration were prepared with DMSO (final concentration 0.5%) and Kolliphor® EL (5% in water). SH045 was administered i.p. as a single dose of 20 mg/kg body weight. Blood was collected from mice tail vein at 5, 15, 30, 60, 120, 180 and 360 min after administration via heparinized catheters. After centrifugation at 4000× g at 4 °C for 10 min, plasma was stored at −80 °C until analysis.
For sample preparation, 20 µL of thawed plasma were mixed with 2 µL of IS (50 µg/mL), vortexed for 30 s, added with 178 µL ice-cold ACN and shaken vigorously for 5 min. After centrifugation at 104,000× g for 15 min, the supernatant was filtered through a 0.2 µm pore-size syringe filter (Phenex-RC 4 mm, Phenomenex, Aschaffenburg, Germany) and stored in the autosampler at 6 °C until analysis by LC-MS/MS, as mentioned above.
The evaluation of basic pharmacokinetic parameters of SH045 (20 mg/kg, i.p.) following a single dose was performed by non-compartmental analysis using a commercially available software program Kinetica, version 5.1 (Thermo Fisher Scientific, Waltham, MA, USA). The Cmax and Tmax were obtained directly from the plasma concentration-time curve. The slope of the terminal phase of the SH045 concentration profile (ʎz) was estimated as absolute values from >4 data points using a log-linear regression analysis.
The area under the plasma concentration-time curve (AUC) for the time (t) providing the final measurable concentration (AUClast) was calculated using the log-linear trapezoidal rule.
The AUC0–∞ was then determined as AUClast + Clast/ʎz, where Clast is the last measurable concentration. The systemic total body clearance from plasma (CLp) was calculated as applied dose divided by AUC0–∞. MRT was calculated as AUMC0–∞/AUC0–∞, where area under the first-moment curve (AUMC) was defined as area under the curve of the product of time and the plasma drug concentration versus time from zero to infinity.
The volume of distribution, VZ, was calculated as CLp/ʎz. Finally, the AUCextra extrapolates the AUC from the last measured time point to infinity.

[9] = stock solution, −20 °C, 28 days
[10] = male, C57BL/6, mouse, ip, mice plasma, single dose 20 mg/kg body weight

For `C=C[C@@](C)(O)CC[C@H]1C(=C)C[C@H](OC(=O)NC)[C@H]2C(C)(C)CCC[C@]12C` [SH045, (1S,4S,4aR,8aS)-4-((S)-3-Hydroxy-3-methylpent-4-en-1-yl)-4a,8,8-trimethyl-3-methylenedecahydronaphthalen-1-yl methylcarbamate], the IC50 (TRPC6 [1]) is given as 5.8 nM, the “edema formation after reperfusion” value [2] is given as “reduced edema formation” and the “Stability, Accuracy” value [3, 9] is given as 106.6%. The “Stability, Mean ± SEM” value [3, 9] was 1066 ± 9 ng/mL, the “Stability, Accuracy” value ([3]; working solution, 4 °C, 12 h) was 103.7% and the “Stability, Mean ± SEM” value ([3]; working solution, 4 °C, 12 h) was 1037 ± 10 ng/mL. For the same compound, the IC50 (TRPC6 [4]) was 63 nM, the fraction unbound at 30 min, 100 ng/mL ([5]; 100 ng/mL SH045, ultrafiltration) was 0.022 and the fraction unbound at 30 min, 800 ng/mL ([5]; 800 ng/mL SH045, ultrafiltration) was 0.003. The “effect on OAG-induced Ca2+ entry” value [6] was “inhibited”, the “Stability in autosampler, Accuracy” value ([7]; nominal 5 ng/mL) was 99.0% and the “Stability in autosampler, Mean ± SEM” value ([7]; nominal 5 ng/mL) was 5.0 ± 0.2 ng/mL. For the same compound, the “Stability in autosampler, Accuracy” value ([7]; nominal 800 ng/mL) was 100.8%, the “Stability in autosampler, Mean ± SEM” value ([7]; nominal 800 ng/mL) was 807 ± 28 ng/mL and the “Stability in autosampler, Accuracy” value ([7]; nominal 1200 ng/mL) was 104.7%. For the same compound, the “Stability in autosampler, Mean ± SEM” value ([7]; nominal 1200 ng/mL) was 1256 ± 50 ng/mL, the “Short-term stability, Accuracy” value ([7]; nominal 5 ng/mL) was 107.6% and the “Short-term stability, Mean ± SEM” value ([7]; nominal 5 ng/mL) was 5.4 ± 0.1 ng/mL. For the same compound, the “Short-term stability, Accuracy” value ([7]; nominal 800 ng/mL) was 101.9%, the “Short-term stability, Mean ± SEM” value ([7]; nominal 800 ng/mL) was 816 ± 2 ng/mL and the “Short-term stability, Accuracy” value ([7]; nominal 1200 ng/mL) was 98.8%. For the same compound, the “Short-term stability, Mean ± SEM” value ([7]; nominal 1200 ng/mL) was 1186 ± 36 ng/mL, the “Freeze and thaw stability, Accuracy” value ([7]; nominal 5 ng/mL) was 97.2% and the “Freeze and thaw stability, Mean ± SEM” value ([7]; nominal 5 ng/mL) was 4.9 ± 0.2 ng/mL. For the same compound, the “Freeze and thaw stability, Accuracy” value ([7]; nominal 800 ng/mL) was 90.1%, the “Freeze and thaw stability, Mean ± SEM” value ([7]; nominal 800 ng/mL) was 721 ± 8 ng/mL and the “Freeze and thaw stability, Accuracy” value ([7]; nominal 1200 ng/mL) was 90.2%. For the same compound, the “Freeze and thaw stability, Mean ± SEM” value ([7]; nominal 1200 ng/mL) was 1083 ± 41 ng/mL, the “Long-term stability, Accuracy” value ([7]; nominal 5 ng/mL) was 107.3% and the “Long-term stability, Mean ± SEM” value ([7]; nominal 5 ng/mL) was 5.4 ± 0.3 ng/mL. The “Long-term stability, Accuracy” value ([7]; nominal 800 ng/mL) was 95.4%, the “Long-term stability, Mean ± SEM” value ([7]; nominal 800 ng/mL) was 763 ± 9 ng/mL and the “Long-term stability, Accuracy” value ([7]; nominal 1200 ng/mL) was 99.9%. The “Long-term stability, Mean ± SEM” value ([7]; nominal 1200 ng/mL) was 1199 ± 29 ng/mL, the “subtype selectivity over TRPC3” value (TRPC3) was 13 fold and the “plasma concentration relative to IC50 for Ca2+ influx” value ([8]; five hours after administration of 20 mg/kg) was “at least two-fold higher”. The AUC(0-inf) [8, 10] was 1470 ng·h/mL, the AUC(0-t) [8, 10] was 1410 ng·h/mL and the Cmax [8, 10] was 756 ng/mL. For the same compound, the MRT [8, 10] was 1.9 h, the Tmax [8, 10] was 0.5 h and the half-life ([8]; male, C57BL/6, mouse, plasma, ip, 20 mg/kg, mice plasma, single dose 20 mg/kg body weight) was 1.3 h. For the same compound, the T1/2 ([8]; mice plasma, single dose 20 mg/kg body weight, i.p., 20 mg/kg) was 1.31 h and the “% AUC (AUCextra as percent)” value ([8]; mice plasma, single dose 20 mg/kg i.p., extrapolated part of AUC) was 4.3%.
